Counter-ions that a name gives are not always drawn.
Assays:
MARK4 [1] = biological target: T1, MARK4 (Homo sapiens, UniProt Q96L34); assay: Fluorescence quenching binding study of MARK4 with DP and RT; settings: for Kq (quenching rate constant): Kq=Ksv/τ0, τ0 2.7 × 10^−9 s; for Ksv (Stern−Volmer constant): MARK4 4 μM; for n (number of the binding site) / Kd: modified Stern−Volmer plot; for ΔG (change in Gibbs free energy): van't Hoff equation; for Kd: K (binding constant); for mode of fluorescence quenching of the MARK4 complex: from temperature dependency of Ksv and from Kq; for ΔH (change in enthalpy) / ΔS (change in entropy): van't Hoff plot over 293, 296, 298 K, same value printed in each temperature row
T1 construct: made in house
T1 sequence (Q96L34 1-752): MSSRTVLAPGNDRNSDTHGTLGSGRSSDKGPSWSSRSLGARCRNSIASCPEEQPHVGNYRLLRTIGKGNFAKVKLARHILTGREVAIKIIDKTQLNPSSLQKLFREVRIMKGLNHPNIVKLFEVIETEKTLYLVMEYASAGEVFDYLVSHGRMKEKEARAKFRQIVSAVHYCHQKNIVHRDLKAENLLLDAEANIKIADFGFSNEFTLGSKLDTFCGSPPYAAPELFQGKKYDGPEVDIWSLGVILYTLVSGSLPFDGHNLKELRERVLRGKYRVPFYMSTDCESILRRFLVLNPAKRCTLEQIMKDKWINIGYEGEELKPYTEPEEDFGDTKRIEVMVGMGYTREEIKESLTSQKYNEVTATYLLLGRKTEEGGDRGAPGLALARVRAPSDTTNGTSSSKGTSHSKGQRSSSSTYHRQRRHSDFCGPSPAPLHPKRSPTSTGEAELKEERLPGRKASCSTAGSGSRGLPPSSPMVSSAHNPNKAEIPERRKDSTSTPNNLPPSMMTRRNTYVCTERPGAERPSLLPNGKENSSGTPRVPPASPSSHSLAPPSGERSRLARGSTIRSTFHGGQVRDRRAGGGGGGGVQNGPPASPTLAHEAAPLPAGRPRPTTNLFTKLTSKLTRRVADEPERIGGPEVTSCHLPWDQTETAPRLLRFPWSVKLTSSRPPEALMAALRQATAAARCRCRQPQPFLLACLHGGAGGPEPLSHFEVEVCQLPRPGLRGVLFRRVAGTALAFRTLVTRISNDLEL
From the text: The observed fluorescence intensities were corrected for the inner filter effect. Obtained data were fitted into the Stern−Volmer and modified Stern−Volmer equations to estimate Stern-Volmer constant (Ksv), binding constant (Ka), and the number of binding sites (n).
Equation (1) (van’t Hoff equation) was used to find the thermodynamic parameters such as changes in enthalpy, entropy, and Gibbs free energy associated with the reaction. (1) ΔG=−RTLnK=ΔH−TΔS
K is the obtained binding constant, ΔH is the associated enthalpy change and ΔG is the associated free Gibbs energy change. ΔS denotes the associated entropy change with reaction, and R is the universal gas constant.
The slope of the van’t Hoff plot (LnK on Y-axis against 1/T on the X-axis) gives the value of −ΔH/R, and the intercept giving the value of ΔS/R.
The intrinsic fluorescence of protein due to tryptophan is often used to get an insight into the ligand binding to the protein because binding often leads to changes in the surrounding environment around tryptophan residues which corresponds to observed changes in fluorescence. The recombinant MARK4 was expressed and purified to carry out all binding studies.
Ksv was obtained from the slope of this plot at a fixed intercept after linear regression using the Stern−Volmer equation (Equation (2)). (2) F0/F=1+Ksv[C]
The SV plot of combined quenching (both static and dynamic) is characteristically an upward curvature while the linear Stern−Volmer plot depicts that only one mode of quenching was operative. […] The linear plot and upward curvature are not enough to define the quenching type. […] Equation (3) uses Ksv and τo (average integral fluorescence lifetime of tryptophan) (2.7 × 10^−9 s) to find biomolecular quenching rate constant (Kq) (3) Kq=Ksv/τ0
To get insights into other binding parameters, Equation (4) was used. This equation gives binding constant (K) and the number of binding sites (n). (4) logF0−F/F=logK+nlog[C]

MARK4 [2] = biological target: T1, MARK4; assay: Isothermal titration calorimetry; type: binding; settings: ITC, 25 °C, 20 µM MARK4; for Kd: 100 µM DP or 200 µM RT in syringe
Procedure: Isothermal titration calorimetry (ITC) measurements were carried out on a VP-ITC microcalorimeter (MicroCal, Inc, GE, MicroCal, Northampton, MA, USA) at 25 °C. All the solutions were degassed in thermovac for 20 min to remove air bubbles. For sample preparation, recombinant MARK4 was extensively dialyzed in 20 mM Tris buffer, pH 8.5. […] We used standard protocol to run the ITC in which the first injection was a false injection of 2 μL followed by injections of 10 μL of the ligands at a span of 260 s intervals into the sample cell. The stirring rate was maintained at 320 rpm. The obtained titration data were analyzed by Origin 8.0 software to estimate thermodynamic parameters such as stoichiometry of binding (n), enthalpy change (ΔH), an association constant (Ka).

MARK4 [3] = biological target: T1, MARK4; assay: ATPase inhibition assay (malachite green, BIOMOL reagent); type: biochemical; settings: MARK4 4 μM, ligand 0–20 μM, pre-incubated 60 min, 200 μM ATP, 25 °C; AAT Bioquest calculator
Procedure: The activity of MARK4 was measured using standard malachite green (BIOMOL® reagent, Enzo Life Sciences) microtitre-plate assay using previously-published protocols [17, 40].
Initially, MARK4 (4 μM) was pre-incubated with increasing concentrations of ligands at room temperature for 60 min in a 96-well plate. Subsequently, 200 μM of freshly-prepared ATP was mixed to the reaction mixture and incubated for 15–20 min at 25 °C. At the end of this time, BIOMOL® reagent was added and kept for 15–20 min. The intensity of color was spectrophotometrically measured at 620 nm.

Row | SMILES | TΔS (MARK4 [1]; 293 K) | Kq (quenching rate constant) (MARK4 [1]; 293 K) | n (number of the binding site) (MARK4 [1]; 293 K) | ΔG (change in Gibbs free energy) (MARK4 [1]; 293 K) | TΔS (MARK4 [1]; 296 K) | Kq (quenching rate constant) (MARK4 [1]; 296 K) | n (number of the binding site) (MARK4 [1]; 296 K) | ΔG (change in Gibbs free energy) (MARK4 [1]; 296 K) | TΔS (MARK4 [1]; 298 K) | Kq (quenching rate constant) (MARK4 [1]; 298 K) | n (number of the binding site) (MARK4 [1]; 298 K) | mode of fluorescence quenching of the MARK4 complex (MARK4 [1]) | ΔH (change in enthalpy) (MARK4 [1]) | ΔS (change in entropy) (MARK4 [1]) | ∆S1 (MARK4 [2]) | ∆S2 (MARK4 [2]) | further results
1 | CCN(C)C(=O)Oc1cccc([C@H](C)N(C)C)c1 [RT, rivastigmine tartrate] | -133.48 kcal/mol | 1.25 10^13 M^−1 s^−1 | 1.66 | -10.74 kcal/mol | -135.76 kcal/mol | 1.44 10^13 M^−1 s^−1 | 1.311 | -8.46 kcal/mol | -138.04 kcal/mol | 2.14 10^13 M^−1 s^−1 | 0.94 | combination of static and dynamic modes of quenching | -144.23 kcal/mol | −455.78 cal mol^−1K^−1 | 31.1 cal/mol/deg | -700 cal/mol/deg | Ksv (Stern−Volmer constant) (MARK4 [1]; 293 K, RT 0−9 µM): 3.4 10^4 M^−1; Ksv (Stern−Volmer constant) (MARK4 [1]; 296 K, RT 0−9 µM): 3.9 10^4 M^−1; Ksv (Stern−Volmer constant) (MARK4 [1]; 298 K, RT 0−9 µM): 5.8 10^4 M^−1; ΔG (change in Gibbs free energy) (MARK4 [1]; 298 K): -6.18 kcal/mol; Kd (MARK4 [1]; 293 K): 0.00952 µM; Kd (MARK4 [1]; 296 K): 0.625 µM; Kd (MARK4 [1]; 298 K): 50 µM; Kd (MARK4 [2]; read-out: Ka1 (association constant) (converted)): 9.8 µM; Kd (MARK4 [2]; read-out: Ka2 (association constant) (converted)): 8.55 µM; Kd (MARK4 [2]; read-out: Ka3 (association constant) (converted)): 5 µM; IC50 (MARK4 [3]): 6.74 µM
2 | COc1cc2c(cc1OC)C(=O)C(CC1CCN(Cc3ccccc3)CC1)C2 (stereo not drawn) [DP, Donepezil] | -126.79 kcal/mol | 6.85 10^14 M^−1 s^−1 | 1.66 | -10.70 kcal/mol | -128.09 kcal/mol | 5.81 10^14 M^−1 s^−1 | 1.311 | -9.40 kcal/mol | -128.95 kcal/mol | 5.03 10^14 M^−1 s^−1 | 0.1 | static mode | -137.5 kcal/mol | −432.749 cal mol^−1K^−1 | 51.2 cal/mol/deg | -207 cal/mol/deg | Ksv (Stern−Volmer constant) (MARK4 [1]; 293 K, DP 0−200 nM): 18.5 10^5 M^−1; Ksv (Stern−Volmer constant) (MARK4 [1]; 296 K, DP 0−200 nM): 15.7 10^5 M^−1; Ksv (Stern−Volmer constant) (MARK4 [1]; 298 K, DP 0−200 nM): 13.6 10^5 M^−1; ∆S3 (MARK4 [2]): 368 cal/mol/deg; ∆S4 (MARK4 [2]): -327 cal/mol/deg
